Consider 31 compounds from ChEMBL document CHEMBL3045773, “Synthesis and structureactivity relationship of acylthiourea derivatives as inhibitors of microsomal epoxide hydrolase” (Med Chem Res, 2012).

As usually defined, the IC50 is the concentration at which inhibition is half-maximal. Higher therefore signals a need for much substance.

For the test, the target named is T1, Epoxide hydrolase 1 (Homo sapiens, UniProt P07099).
T1 sequence (P07099 whole entry): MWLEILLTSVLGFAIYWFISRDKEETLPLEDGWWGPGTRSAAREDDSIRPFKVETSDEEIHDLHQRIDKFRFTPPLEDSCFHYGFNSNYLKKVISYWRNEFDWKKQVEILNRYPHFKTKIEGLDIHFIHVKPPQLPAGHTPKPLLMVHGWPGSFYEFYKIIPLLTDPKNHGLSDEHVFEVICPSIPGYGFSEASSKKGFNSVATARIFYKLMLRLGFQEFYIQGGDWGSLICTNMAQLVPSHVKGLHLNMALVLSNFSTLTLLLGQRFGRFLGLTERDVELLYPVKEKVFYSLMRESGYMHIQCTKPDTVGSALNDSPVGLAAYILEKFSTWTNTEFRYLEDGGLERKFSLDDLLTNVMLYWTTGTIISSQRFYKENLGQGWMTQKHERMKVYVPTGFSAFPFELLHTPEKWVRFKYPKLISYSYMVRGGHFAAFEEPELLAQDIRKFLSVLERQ
Briefly: Inhibition of microsomal epoxide hydrolase (unknown origin) using 7-(2-(Oxiran-2-yl)ethoxy) Resorufin by fluorometric method.
In turn, `O=C(NC(=S)Nc1ccc(N2CCOCC2)cc1)c1ccccc1` registered an IC50 of 1720 nM.

In turn, `O=C(NC(=S)Nc1ccc(Cl)cc1)c1ccccc1` showed an IC50 of 1640 nM. As to `COc1cc([N+](=O)[O-])ccc1NC(=S)NC(=O)c1ccccc1`, the IC50 is 1650 nM. For the compound `COc1cc(C)ccc1NC(=S)NC(=O)c1ccccc1`, 2540 nM corresponded to half-maximal inhibition (IC50). For `O=C(NC(=S)Nc1ccc(Oc2ccccc2)cc1)c1ccccc1`, the IC50 was 2100 nM. On to `CC(C)(C)NC(=S)NC(=O)c1ccccc1`, for which the IC50 was 1580 nM. As to `O=C(NC(=S)Nc1ccncc1)c1ccccc1`, the IC50 is 2280 nM. In turn, `O=C(NC(=S)Nc1ccc(Br)c2ccccc12)c1ccccc1` displayed an IC50 of 1880 nM. Regarding `O=C(NC(=S)NC12CC3CC(CC(C3)C1)C2)c1ccccc1`, the IC50 turned out to be 1010 nM. For `CC(=O)NC(=S)Nc1ccccc1C` the value was 1500 nM; for `CC(=O)NC(=S)Nc1ccc(Cl)cc1`, 2210 nM.

`CC(=O)NC(=S)Nc1ccc(Br)cc1` yielded an IC50 of 1640 nM.

The compound `CC(=O)NC(=S)Nc1cc(Cl)ccc1Cl` registered an IC50 of 2290 nM. Regarding `CCOc1ccc(OCC)c(NC(=S)NC(C)=O)c1`, the IC50 amounted to 2530 nM.

For the compound `CC(=O)NC(=S)Nc1ccc(Br)c(C(F)(F)F)c1`, the IC50 was 1390 nM. Turning to `COc1cc([N+](=O)[O-])ccc1NC(=S)NC(C)=O`, the IC50 was determined as 1870 nM.

Compound `COc1cc(C)ccc1NC(=S)NC(C)=O` showed an IC50 of 1690 nM. With `CC(=O)NC(=S)Nc1ccc(Oc2ccccc2)cc1`, the midpoint of inhibition, the IC50, lay at 3700 nM.

Take `CC(=O)NC(=S)Nc1ccc(N2CCOCC2)cc1`: the IC50 worked out at 2590 nM. Regarding `CC(=O)NC(=S)NC(C)(C)C`, the IC50 was found to be 2700 nM. The compound `CC(=O)NC(=S)Nc1ccncc1` had an IC50 of 2070 nM.

For the compound `CC(=O)NC(=S)Nc1ccc(Br)c2ccccc12`, half-maximal inhibition (IC50) was put at 2420 nM. The compound `CC(=O)NC(=S)NC12CC3CC(CC(C3)C1)C2` had an IC50 of 1120 nM. `Cc1ccccc1NC(=S)NC(=O)c1ccccc1` showed an IC50 of 3540 nM.

Compound `O=C(NC(=S)Nc1ccc(Br)cc1)c1ccccc1` gave an IC50 of 3440 nM. Compound `O=C(NC(=S)Nc1cc(Cl)ccc1Cl)c1ccccc1` showed an IC50 of 2150 nM.

In turn, `CCOc1ccc(OCC)c(NC(=S)NC(=O)c2ccccc2)c1` yielded an IC50 of 2040 nM.

The compound `O=C(NC(=S)Nc1ccc(Br)c(C(F)(F)F)c1)c1ccccc1` returned an IC50 of 1170 nM. Then `O=C(Nc1ccccc1)Nc1ccccc1`, with 1200 nM; and `CC(=O)NC(=S)Nc1ccccc1` [N-(PHENYLCARBAMOTHIOYL)ACETAMIDE], with 2350 nM. With `O=C(NC(=S)Nc1ccccc1)c1ccccc1` [N-(PHENYLCARBAMOTHIOYL)BENZAMIDE], the IC50 came to 1290 nM.
